Consider 2 molecules from patent US6342500B1, “Post-Amadori inhibitors of Advanced Glycation reactions” (Kansas University Medical Center, priority 1999, dated 2002).

Data set [1] relates to conversion of Amadori compounds to post Amadori advanced glycation endproducts (bovine serum albumin glycated by ribose). As to the kind of experiment: Interrupted glycation: post-Amadori AGE formation of bovine serum albumin by ribose. It counts as biochemical. The method, then:
FIG. 2 is graph depicting the effect of dipyridoxylamine (BST-4500) on post-Amadori AGE formation during interrupted glycation of bovine serum albumin by ribose. Modification with ribose was done at 37° C. in 0.2 M phosphate buffer of pH 7.5 containing 0.02% sodium azide. The solutions were kept in capped tubes and opened only to remove timed aliquots that were immediately frozen for later carrying out the various analyses. “Interrupted glycation” experiments were carried out by first incubating protein with the ribose at 37° C. for 8 or 24 h, followed by immediate and extensive dialysis against frequent cold buffer changes at 4° C. The samples were then reincubated by quickly warming to 37° C. in the absence of external ribose. Aliquots were taken and frozen at various intervals for later analysis.
The interrupted glycation method for following post-Amadori kinetics of AGE formation allows for the rapid quantitative study of “late” stages of the glycation reaction. Importantly, this method allows for inhibition studies that are free of pathways of AGE formation which arise from glycoxidative products of free sugar or Schiff base (Namiki pathway).
In comparison, in a similar experiment, pyridoxamine inhibited the conversion of Amadori compounds to post Amadori advanced glycation endproducts with a half-maximal inhibitory concentration of approximately 3 mM. Thus, the post-Amadori-inhibitory activity of dipyridoxylaminc is approximately 750-fold greater than that of pyridoxamine.

Data set [2] relates to normal human epidermal keratinocytes. Put plainly: Neutral red uptake bioassay using normal human epidermal keratinocytes. It counts as cell-based. To be noted: for HuLC50: preliminarily estimated concentration for half-maximal toxicity, neutral red uptake, normal human epidermal keratinocytes. The method, then: A neutral red uptake bioassay using normal human epidermal keratinocytes was then conducted to preliminarily estimate the toxicity (HuLC50) of dipyridoxylamine relative to pyridoxamine. The bioassay was conducted according to standard protocols. (Borenfreund et al., J. Tissue Culture Methods 9:7-9, 1984; Heimann, et al., Cancer Res. 43:4856-4862, 1983; Shopsis et al., in “Alternative Methods in Toxicology,” Vol. 6, AM Goldberg (Ed), Mary Ann Liebert, Inc., N.Y., p. 253-263, 1988) The preliminarily estimated concentration for half-maximal toxicity was then divided by the half maximal inhibition of post-Amadori AGE formation to derive a therapeutic index ratio.

Where [3] appears, read: half maximal inhibition of post-Amadori AGE formation, read-out: IC50.

Each structure is given as a SMILES string. Read-outs that look alike come from different tables or passages of the source.

In the case of `Cc1ncc(CO)c(CNCc2c(CO)cnc(C)c2O)c1O` [Dipyridoxylamine], the IC50 in data set [1] (setting [3]) was 4 µM; in data set [1] (interrupted glycation of BSA by ribose, 37° C., 0.2 M phosphate buffer pH 7.5, read-out: half-maximal inhibitory concentration for inhibiting the conversion of Amadori compounds to post Amadori advanced glycation endproducts), around 4 µM. For the same molecule, the “post-Amadori-inhibitory activity relative to pyridoxamine” value in data set [1] (ratio of half-maximal inhibitory concentrations, versus pyridoxamine) is on record as “approximately 750 fold”. In data set [2] (neutral red uptake bioassay, in words), the “toxicity relative to pyridoxamine” value is “mildly more toxic than pyridoxamine”. The HuLC50 in data set [2] is 1.8 mM.
Turning to `Cc1ncc(CO)c(CN)c1O` [Pyridoxamine, pyridoxamine, reference compound], the IC50 in data set [1] (setting [3]) was 3000 µM; in data set [1] (in a similar experiment (interrupted glycation), read-out: half-maximal inhibitory concentration for inhibiting the conversion of Amadori compounds to post Amadori advanced glycation endproducts) it was around 3000 µM. In data set [2], the HuLC50 is 16.7 mM.
